Test system: anesthetized dogs
Experiment: Myocardial oxygen consumption, coronary flow, cardiac output in anesthetized dogs, iv
Type: in vivo
Conditions: c3-c8 5,15,30,60,90,120 min after administration; for coronary artery resistance, x ± s / myocardial oxygen consumption, x ± s / total peripheral resistance (TPR), x ± s / cardiac output, x ± s / myocardial oxygen uptake, x ± s: c2 0 min before
Experimental: Isosorbide Dinitrate control group were medicated by continuous intravenous infusion and other groups by intravenous injection.
The animals were anesthetised with 3% pentobarbital sodium iv at the dose of 30 mg/kg. Tracheal intubation was performed and SC-M5 anesthesia respirator (manufactured by Shanghai Medical Instrument Factory, frequency: 16˜18 per min, tidal volume: 350˜550 ml) was connected. Bilateral femoral arteries were separated for blood sampling and analyzing and measurement of mean blood pressure. Thoracotomy at the fourth intercostal space was performed to expose the heart and to open the pericardium to make pericardial hammock. Ascending aortic root and upper part of left branch of anterior descending coronary artery were dissociated to put respectively probes of electromagnetic flowmeter (MFV-1100/1200, made by Japanese Nihon Kohden Company) to measure cardiac output and coronary artery flow rate. Right jugular vein was separated for insertion of a cardiac catheter that was guided into coronary venous sinuses before fixation. Synchronously, blood was sampled by drawing from coronary sinus and femoral artery (0.5% heparin was added for anticoagulation). pO2 and pH were detected with a blood gas analyzer (DH-1830 Blood Gas Acid-base Analyze, Nanjing Ananalysis Apparatus Factor) and the values were converted to artery and venous oxygen content. After intravenous infusion of control solvent or the drug, constant infusion for all groups was completed with an electronic constant flow pump (SH-88AB Controllable Intravenous Injector made by Quanzhou Lizhong Electronic Medical Instrument Factory). Both artery and venous blood gas before administration or 5, 15, 30, 60, 90 and 120 min after administration was analyzed and mean blood pressure and cardiac output at 0, 5, 15, 30, 60, 90 and 120 min were observed.
Myocardial oxygen consumption(ml/min/100 g)=coronary flow ml/min/100 g×artery oxygen−coronary sinus oxygen ml %).
Myocardial oxygen uptake (%)=(artery oxygen ml %−coronary sinus oxygen ml %)/artery oxygen ml %
Total peripheral resistance of general circulation(dyn·s·cm−5)=mean arterial blood pressure[MAP(KPa)]×80/cardiac output[CO(L/min)]=mean arterial blood pressure[MAP(mmHg)]×10.6/cardiac output[CO(L/min)]
Coronary resistance[Kpa/ml/min]=mean arterial blood pressure[MAP(KPa)]/coronary artery flow.

[1] = TSG 2.5 mg/kg iv, 0 min, before administration
[2] = TSG 2.5 mg/kg iv, 5 min after administration
[3] = TSG 2.5 mg/kg iv, 15 min after administration
[4] = TSG 2.5 mg/kg iv, 30 min after administration
[5] = TSG 2.5 mg/kg iv, 60 min after administration
[6] = TSG 2.5 mg/kg iv, 90 min after administration
[7] = TSG 2.5 mg/kg iv, 120 min after administration
[8] = TSG 2.5 mg/kg iv, before administration, 0 min
[9] = TSG 5 mg/kg iv, 0 min, before administration
[10] = TSG 5 mg/kg iv, 5 min after administration
[11] = TSG 5 mg/kg iv, 15 min after administration
[12] = TSG 5 mg/kg iv, 30 min after administration
[13] = TSG 5 mg/kg iv, 60 min after administration
[14] = TSG 5 mg/kg iv, 90 min after administration
[15] = TSG 5 mg/kg iv, 120 min after administration

3,4′,5-trihydroxy-stilbene-3-β-D-glucoside [TSG]
coronary artery resistance, x ± s [1]: 0.268 ± 0.050 Kpa/ml/min | myocardial oxygen consumption, x ± s [1]: 214.6 ± 5.24 mL/min.100 g^−1 | total peripheral resistance (TPR), x ± s [1]: 888.8 ± 200.9 dyn·s·cm^−5 | cardiac output, x ± s [2]: 1.09 ± 0.12 L/min | coronary artery resistance, x ± s [2]: 0.269 Kpa/ml/min | myocardial oxygen consumption, x ± s [2]: 215.5 ± 8.73 mL/min.100 g^−1 | myocardial oxygen uptake, x ± s [2]: 77.4% | total peripheral resistance (TPR), x ± s [2]: 873.5 ± 210.3 dyn·s·cm^−5 | cardiac output, x ± s [3]: 1.09 ± 0.14 L/min | coronary artery resistance, x ± s [3]: 0.266 ± 0.049 Kpa/ml/min | total peripheral resistance (TPR), x ± s [3]: 888.7 ± 208.8 dyn·s·cm^−5 | cardiac output, x ± s [4]: 1.10 ± 0.13 L/min | coronary artery resistance, x ± s [4]: 0.257 ± 0.054 Kpa/ml/min | myocardial oxygen consumption, x ± s [4]: 218.2 ± 6.85 mL/min.100 g^−1 | myocardial oxygen uptake, x ± s [4]: 74.2 ± 5.11% | total peripheral resistance (TPR), x ± s [4]: 869.1 ± 249.3 dyn·s·cm^−5 | cardiac output, x ± s [5]: 1.11 ± 0.13 L/min | coronary artery resistance, x ± s [5]: 0.261 ± 0.051 Kpa/ml/min | myocardial oxygen consumption, x ± s [5]: 218.0 ± 8.95 mL/min.100 g^−1 | myocardial oxygen uptake, x ± s [5]: 73.1 ± 6.16% | total peripheral resistance (TPR), x ± s [5]: 890.2 ± 240.3 dyn·s·cm^−5 | coronary artery resistance, x ± s [6]: 0.267 ± 0.054 Kpa/ml/min | myocardial oxygen consumption, x ± s [6]: 214.1 ± 8.39 mL/min.100 g^−1 | myocardial oxygen uptake, x ± s [6]: 75.0 ± 6.24% | total peripheral resistance (TPR), x ± s [6]: 877.6 ± 225.1 dyn·s·cm^−5 | cardiac output, x ± s [7]: 1.10 ± 0.14 L/min | coronary artery resistance, x ± s [7]: 0.271 ± 0.055 Kpa/ml/min | total peripheral resistance (TPR), x ± s [7]: 868.6 ± 221.8 dyn·s·cm^−5 | cardiac output, x ± s [8]: 1.06 ± 0.13 L/min | myocardial oxygen uptake, x ± s [8]: 76.9 ± 5.50% | cardiac output, variation % [2]: 2.50 ± 2.42% | coronary artery resistance, variation % [2]: 0.81% | myocardial oxygen consumption, variation % [2]: 0.40 ± 3.16% | myocardial oxygen uptake, variation % [2]: 0.72% | total peripheral resistance (TPR), variation % [2]: −1.89 ± 6.74% | cardiac output, variation % [3]: 1.97 ± 1.55% | coronary artery resistance, variation % [3]: −0.34 ± 2.36% | total peripheral resistance (TPR), variation % [3]: −0.10 ± 4.21% | cardiac output, variation % [4]: 3.88 ± 3.48% | coronary artery resistance, variation % [4]: −3.82 ± 9.83% | myocardial oxygen consumption, variation % [4]: 1.66 ± 1.48% | myocardial oxygen uptake, variation % [4]: −3.47 ± 1.59% | total peripheral resistance (TPR), variation % [4]: −3.22 ± 9.65% | cardiac output, variation % [5]: 4.41 ± 1.40% | coronary artery resistance, variation % [5]: −2.48 ± 8.17% | myocardial oxygen consumption, variation % [5]: 1.57 ± 2.94% | myocardial oxygen uptake, variation % [5]: −4.99 ± 3.01 % | total peripheral resistance (TPR), variation % [5]: −0.56 ± 7.52% | cardiac output, variation % [6]: 4.40 ± 1.64% | coronary artery resistance, variation % [6]: −0.24 ± 10.72% | myocardial oxygen consumption, variation % [6]: −0.25 ± 2.84% | myocardial oxygen uptake, variation % [6]: −2.58 ± 2.67 % | total peripheral resistance (TPR), variation % [6]: −1.52 ± 9.42% | cardiac output, variation % [7]: 3.23 ± 2.57% | coronary artery resistance, variation % [7]: 1.19 ± 6.55% | total peripheral resistance (TPR), variation % [7]: −2.58 ± 7.26% | coronary artery resistance, x ± s [9]: 0.299 ± 0.029 Kpa/ml/min | myocardial oxygen consumption, x ± s [9]: 211.4 ± 4.05 mL/min.100 g^−1 | total peripheral resistance (TPR), x ± s [9]: 906.3 ± 193.9 dyn·s·cm^−5 | cardiac output, x ± s [10]: 1.13 ± 0.12 L/min | coronary artery resistance, x ± s [10]: 0.308 Kpa/ml/min | myocardial oxygen consumption, x ± s [10]: 210.4 ± 6.48 mL/min.100 g^−1 | myocardial oxygen uptake, x ± s [10]: 79.6% | total peripheral resistance (TPR), x ± s [10]: 897.1 ± 184.7 dyn·s·cm^−5 | cardiac output, x ± s [11]: 1.13 ± 0.13 L/min | coronary artery resistance, x ± s [11]: 0.305 ± 0.029 Kpa/ml/min | total peripheral resistance (TPR), x ± s [11]: 916.6 ± 186.2 dyn·s·cm^−5 | cardiac output, x ± s [12]: 1.15 ± 0.14 L/min | coronary artery resistance, x ± s [12]: 0.299 ± 0.026 Kpa/ml/min | myocardial oxygen consumption, x ± s [12]: 210.2 ± 8.65 mL/min.100 g^−1 | myocardial oxygen uptake, x ± s [12]: 74.8 ± 5.66% | total peripheral resistance (TPR), x ± s [12]: 915.2 ± 199.9 dyn·s·cm^−5 | cardiac output, x ± s [13]: 1.16 ± 0.14 L/min | coronary artery resistance, x ± s [13]: 0.288 ± 0.026 Kpa/ml/min | myocardial oxygen consumption, x ± s [13]: 212.9 ± 7.2 mL/min.100 g^−1 | myocardial oxygen uptake, x ± s [13]: 74.5 ± 6.05% | total peripheral resistance (TPR), x ± s [13]: 907.8 ± 194.0 dyn·s·cm^−5 | cardiac output, x ± s [14]: 1.16 ± 0.13 L/min | coronary artery resistance, x ± s [14]: 0.287 ± 0.028 Kpa/ml/min | myocardial oxygen consumption, x ± s [14]: 209.6 ± 9.01 mL/min.100 g^−1 | myocardial oxygen uptake, x ± s [14]: 75.1 ± 6.48% | total peripheral resistance (TPR), x ± s [14]: 891.7 ± 188.6 dyn·s·cm^−5 | cardiac output, x ± s [15]: 1.14 ± 0.13 L/min | coronary artery resistance, x ± s [15]: 0.287 ± 0.031 Kpa/ml/min | total peripheral resistance (TPR), x ± s [15]: 881.8 ± 188.9 dyn·s·cm^−5

— patent US20080176810A1, “Use of 3, 4', 5-Trihydroxy-Stilbene-3-Beta-D-glucoside in Prepartion of Medicines For Treating and/or Preventing Ischemic Heart Disease” (SHENZHEN NEPTUNUS PHARMACEUTICAL CO., LTD., priority 2004, published 2008)
